Measurements from article PMC10959927, “Platinum iodido drugs show potential anti-tumor activity, affecting cancer cell metabolism and inducing ROS and senescence in gastrointestinal cancer cells” (Communications Biology, 2024).
Values joined by “and” are separate entries in the source; they are usually repeats but may differ in a detail not shown here. Identical values can stand only once.

Assays:
AGS cells [1] = assay: Seahorse XF OCR, ECAR and energy map; assay type: cell-based, human; conditions: AGS, IC50 24 h
Experimental: (§1) Oxygen Consumption Rate (OCR), Extra Cellular Acidification Rate (ECAR) and Energy map measurements. Cells were plated in XF HS Miniplates (Seahorse Bioscience) at a cellular density of 1 × 10^4 cells/well and incubated overnight. […] After an OCR baseline measurement, the minimum oxygen consumption was determined by adding 1.5 µM oligomycin (O) and the maximal respiration rate was assessed by adding 1 µM carbonyl cyanide p-trifluoro methoxyphenylhydrazone (FCCP, F). At the end of the experiment, the non-mitochondrial oxygen consumption was evaluated by adding both 0.5 µM rotenone (R) and antimycin (A). Experiments were run in a XF HS Mini analyzer (Seahorse Agilent), and raw data were normalized to total protein using a BCA protein assay kit (Cat. no. 23225, Thermo Scientific).

MKN45 cells [2] = assay: Seahorse XF OCR, ECAR and energy map; assay type: cell-based, human; design: Basal resp. / Maximal resp. / SRC: unit not given here; conditions: MKN45, IC50 24 h
Experimental: as §1

PANC1 cells [3] = assay: Seahorse XF OCR, ECAR and energy map; assay type: cell-based, human; design: Basal resp. / Maximal resp. / SRC: unit not given here; conditions: PANC1, IC50 24 h
Experimental: as §1

AGS cells [4] = assay: ATP determination assay (bioluminescence); assay type: cell-based, human; conditions: replicates
Experimental: (§2) ATP determination assay. […] The analysis was performed using the ATP Bioluminescense Assay Kit CLS II (Cat. no. 11699695001, Roche) according to the manufacturer’s instructions. […] Data were normalized to total protein using the BCA protein assay kit (Thermo Scientific).

MKN45 cells [5] = assay: ATP determination assay (bioluminescence); assay type: cell-based, human; conditions: replicates
Experimental: as §2

PANC1 cells [6] = assay: ATP determination assay (bioluminescence); assay type: cell-based, human; conditions: replicates
Experimental: as §2

AGS cells [7] = assay: Lactate production assay; assay type: cell-based, human; conditions: replicates
Experimental: (§3) Lactate production assay. […] Proteins were removed from 50 μL of the medium by adding 100 μL of 8% Percloric Acid and 40% EtOH at 4 °C, and centrifuging at 2 × 10^4 g for 10 min at 4 °C. The supernatants were then frozen until the lactate in 15 μL of each sample, or lactate standard, was measured mixed with 150 μl of assay buffer (0.5 M glycine [pH 9.5], 0.2 M Hydrazine, 3.4 mM EDTA), 100 μl of H20, 5 μL of 1100 U/mL LDH (Roche) and 30 μL of 15 mM NAD + . NADH production was evaluated by measuring absorbance at 340 nm in a multiplate reader (Synergy HT, Biotek) and it was proportional to the lactic acid concentration in the sample after a 2 h incubation. The lactate concentration was normalized to the total amount of protein measured with the Micro BCA Protein Assay Kit (Thermo Scientific). Assays were performed in triplicate in three independent experiments.

MKN45 cells [8] = assay: Lactate production assay; assay type: cell-based, human; conditions: replicates
Experimental: as §3

PANC1 cells [9] = assay: Lactate production assay; assay type: cell-based, human; conditions: replicates
Experimental: as §3

PANC1 cells [10] = assay: ROS detection by confocal microscopy (DHE, MitoSox); assay type: cell-based, human; conditions: PANC1, 1 h treatment; H2O2 200 µM, CDDP 10 µM, I5 20 µM, I6 20 µM
Experimental: Tumor cells were seeded at a density of 3 × 10^5 cells in 15 µm 8-well IBIDI plates and incubated overnight. […] Subsequently, cells were stained with 10 μM of dihydroethidium (DHE, cytosolic O2^·- probe, Sigma-Aldrich) or with 5 μM of Mitosox (mitochondrial O2^·- probe, Sigma-Aldrich) for 15–30 min[79] and then visualized on a confocal microscope (Confocal LSM 710 Zeiss, Biomedical Research Institute Alberto Sols, IIBm-CSIC-UAM, Madrid, Spain). The image analysis was realized using the software program Image J.

C57Bl6 mice = assay: Indirect calorimetry analyses (PhenoMaster); assay type: in vivo, mouse
Experimental: Indirect calorimetry analyses were carried out using a 16-chamber TSE PhenoMaster monitoring system (TSE Systems GmbH, Bad Homburg, Germany). Full access to food and water was continuously available, and intake was monitored using built-in devices located within each cage. Calorimetry measurements were carried out during a period of 72 h, according to animal weight, to exclude changes in body weight that would contribute to differences in energy expenditure measurements. […] Mice were introduced into individual chambers and were on a 12 h light-dark cycle (lights on at 07:00am) during the course of the experiment, with a maintained room temperature of 22 ± 2°C. Oxygen consumption and CO2 release was measured. From these values, respiratory exchange ratio (RER) was determined as VCO2/VO2 and energy expenditure (EE) was calculated as = ([…] + 1.232 x RER) x VO2. Locomotor activity was reported as the average light beam breaks (XT + YT) per min. XT and YT (T = total) were calculated from the sum of the ambulatory and fine movements. Water and food consumption (DRINK and FOOD, respectively, Fig. S8) were also monitored and recorded.

## CC(C)[NH][Pt@SP3]([I])([I])[NH]C(C)C [I5, trans-[PtI2(isopropylamine)2]]
AGS cells [1]
  effect on ECAR: strong effect
AGS cells [1]; time 21.13 min (I5) / 21.08 min (I6)
  OCR: 33.7993 pmoles/min/µg protein and 17.1923 pmoles/min/µg protein and 31.197 pmoles/min/µg protein
AGS cells [1]; time 60.15 min (I5) / 60.16 min (I6)
  OCR: 22.0275 pmoles/min/µg protein and 13.2859 pmoles/min/µg protein and 22.5877 pmoles/min/µg protein
AGS cells [1]; time 66.63 min (I5) / 66.65 min (I6)
  OCR: 21.2372 pmoles/min/µg protein and 12.4063 pmoles/min/µg protein and 20.3044 pmoles/min/µg protein
AGS cells [1]; time 73.12 min (I5) / 73.14 min (I6)
  OCR: 19.5577 pmoles/min/µg protein and 11.425 pmoles/min/µg protein and 19.4877 pmoles/min/µg protein
MKN45 cells [2]
  Basal resp.: 41.12 and 25.16 and 29.99
  Maximal resp.: 70.47 and 41.2 and 48.53
  SRC: 29.35 and 16.04 and 18.54
  effect on ECAR: strong effect
MKN45 cells [2]; time 1.53 min (I5) / 1.53 min (I6)
  OCR: 87.0221 pmoles/min/µg protein and 65.8202 pmoles/min/µg protein and 67.2404 pmoles/min/µg protein
MKN45 cells [2]; time 8.04 min (I5) / 8.03 min (I6)
  OCR: 81.395 pmoles/min/µg protein and 60.0787 pmoles/min/µg protein and 61.987 pmoles/min/µg protein
MKN45 cells [2]; time 14.51 min (I5) / 14.5 min (I6)
  OCR: 68.3352 pmoles/min/µg protein and 45.5888 pmoles/min/µg protein and 48.6636 pmoles/min/µg protein
MKN45 cells [2]; time 40.66 min (I5) / 40.62 min (I6)
  OCR: 96.0748 pmoles/min/µg protein and 62.8442 pmoles/min/µg protein and 67.0243 pmoles/min/µg protein
MKN45 cells [2]; time 53.68 min (I5) / 53.58 min (I6)
  OCR: 97.9086 pmoles/min/µg protein and 60.6467 pmoles/min/µg protein and 66.2231 pmoles/min/µg protein
MKN45 cells [2]; time 60.27 min (I5) / 60.14 min (I6)
  OCR: 32.7644 pmoles/min/µg protein and 24.8353 pmoles/min/µg protein and 23.7602 pmoles/min/µg protein
MKN45 cells [2]; time 66.75 min (I5) / 66.62 min (I6)
  OCR: 29.7633 pmoles/min/µg protein and 21.9547 pmoles/min/µg protein and 20.2025 pmoles/min/µg protein
MKN45 cells [2]; time 73.23 min (I5) / 73.1 min (I6)
  OCR: 27.2124 pmoles/min/µg protein and 20.4304 pmoles/min/µg protein and 18.6726 pmoles/min/µg protein
PANC1 cells [3]
  Basal resp.: 4.37 and 2.91 and 2.68
  effect on ECAR: strong effect
PANC1 cells [3]; time 14.5 min (I5) / 14.5 min (I6)
  OCR: 10.9576 pmoles/min/µg protein and 5.698 pmoles/min/µg protein and 5.804 pmoles/min/µg protein
PANC1 cells [3]; time 21.08 min (I5) / 21.07 min (I6)
  OCR: 8.99 pmoles/min/µg protein and 4.967 pmoles/min/µg protein and 6.036 pmoles/min/µg protein
PANC1 cells [3]; time 60.22 min (I5) / 60.14 min (I6)
  OCR: 6.526 pmoles/min/µg protein and 3.324 pmoles/min/µg protein and 3.875 pmoles/min/µg protein
AGS cells [4]
  ATP assay: 8571 nmoles ATP/mg prot and 150.2 nmoles ATP/mg prot and 0.01 nmoles ATP/mg prot and 0.05 nmoles ATP/mg prot and 4895.31 nmoles ATP/mg prot and 5882.71 nmoles ATP/mg prot and 4424 nmoles ATP/mg prot and 7769.74 nmoles ATP/mg prot and 709.57 nmoles ATP/mg prot
MKN45 cells [5]
  ATP assay: 11672 nmoles ATP/mg prot and 496.26 nmoles ATP/mg prot and 8257.16 nmoles ATP/mg prot and 8443 nmoles ATP/mg prot and 9557.85 nmoles ATP/mg prot and 7684.95 nmoles ATP/mg prot and 11572 nmoles ATP/mg prot and 11682.5 nmoles ATP/mg prot and 9034.25 nmoles ATP/mg prot
PANC1 cells [6]
  ATP assay: 7640.3 nmoles ATP/mg prot and 496.05 nmoles ATP/mg prot and 2595.09 nmoles ATP/mg prot and 2106 nmoles ATP/mg prot and 8408.46 nmoles ATP/mg prot and 9059.04 nmoles ATP/mg prot and 9127 nmoles ATP/mg prot and 10292.6 nmoles ATP/mg prot and 9600 nmoles ATP/mg prot
AGS cells [7]
  lactate assay: 1.16 Lactate mM/mg prot and 3.26 Lactate mM/mg prot and 1.86 Lactate mM/mg prot and 0.01 Lactate mM/mg prot and 0.05431 Lactate mM/mg prot and 0.02716 Lactate mM/mg prot and 0.02 Lactate mM/mg prot and 0.03 Lactate mM/mg prot
MKN45 cells [8]
  lactate assay: 3.26 Lactate mM/mg prot and 4 Lactate mM/mg prot and 1.31 Lactate mM/mg prot and 1.423 Lactate mM/mg prot and 0.8373 Lactate mM/mg prot and 1.863 Lactate mM/mg prot and 1.55 Lactate mM/mg prot and 1.53 Lactate mM/mg prot and 1.48 Lactate mM/mg prot
PANC1 cells [9]
  lactate assay: 5.32 Lactate mM/mg prot and 7.44 Lactate mM/mg prot and 7.29 Lactate mM/mg prot and 4.009 Lactate mM/mg prot and 7.435 Lactate mM/mg prot and 6.316 Lactate mM/mg prot and 4.98 Lactate mM/mg prot and 4.88 Lactate mM/mg prot and 4.97 Lactate mM/mg prot
PANC1 cells [10]
  DHE fluorescence intensity (per cell), cytosolic O2•−: 90.3731 and 85.3678 and 75.6942 and 74.4248 and 73.3485 and 72.8941
C57Bl6 mice; C57Bl6 mice, 1.4 mg/kg i.v.
  RER, EE, locomotor activity, food and water intake vs untreated: no differences were observed
C57Bl6 mice; Fig. S8B left graph, individual mice
  DRINK: 4.49 mL and 10.13 mL and 7.81 mL and 7.64 mL and 8.16 mL
